Data taken from US4510144A, “Methods of imparting immunomodulating activity with dihydrothiazolo purine derivatives” (Newport Pharmaceuticals International, priority 1982, dated 1985).
Read-outs that look alike come from different tables or passages of the source.

Columns and labels:
[1] = tested on: splenocytes from athymic mice (theta positive cells); experiment: induction of theta positive cells in splenocytes from athymic (nude) mice in vitro; format: cell-based; conditions: for percent of theta positive cells: mean of three experiments, saline control 8
Excerpt: (4) Induction of theta positive cells in nude mice (in vitro).

[2] = tested on: murine spleen cells, Con A induced (T-cells); experiment: Con A induced lymphocyte proliferation in mouse spleen cells in vitro; format: cell-based, mouse (Balb/C); conditions: for activity at 0.01 µg/mL / activity at 0.1 µg/mL / activity at 1 µg/mL / activity at 2.5 µg/mL / activity at 5 µg/mL / activity at 25 µg/mL / activity at 50 µg/mL: Mus musculus
Excerpt: (1) Mitogen-(Lipopolysaccharide, LPS or Con A) induced lymphocyte proliferation using murine spleen cells (in vitro)
1. […] LPS is a mitogen which acts preferentially on B-cells. […] Con A is considered a T-cell mitogen.
1. Balb/C male mice, 7-8 weeks old, are used up to 20-24 weeks of age.
2. The animals are sacrificed by cervical dislocation and the animals' left sides swabbed with 70% ethanol. An incision is made between the lower ribs and pelvis, laterally from front to back, and the skin retracted. Aseptic technique is to be observed from this point on.
3. The spleen is gently removed with sterile forceps. […] When all spleens have been collected and cleaned they are placed in a second petri dish containing 3 ml cold RPMI.
4. Spleen cell suspensions are prepared by gentle mincing of the tissue with a sterile blade and filtering through #100 stainless steel mesh.
6. An aliquot of the above suspension is prepared for cell counting as follows: 0.1 ml of suspension is diluted to 1.0 ml with 3% acetic acid and let stand at room temperature for at least five minutes. The sample is then diluted 1:100 with "Isoton II" (Curtis-Matheson Co.) and counted in a coulter counter.
MURINE SPLENOCYTE STIMULATION WITH CONCANAVALIN A (CON A), LIPOPOLYSACCHARIDE (LPS), AND ALLOGENEIC SPLENOCYTES (LMC).
There is set forth below the standard procedure which should be modified according to the solubility and other properties of the particular compound tested.
Add ~10 ml RPMI to 1.79 g HEPES and vortex until completely dissolved. […] Allow to warm temperature before use.
5. Con A (Calbiochem)--100 mg/ml NaCl injection solution (McGaw), filter, aliquot in 1 ml, and store at -70° C.
8. Tritiated thymidine (^3 H-TdR, Schwartz-Mann, 6 Ci/mM). Remove a slightly larger volume of ^3 H-TdR than needed from vial with a 1 cc syringe and place volume in the cap of a small sterile plastic tube. […] Vortex thoroughly before adding to plates.
1. Animals are sacrificed by cervical dislocation killing one from each group and processing the cells individually before killing the next animal. Swab each animal with 70% ethanol before surgery. […] Use 8 vertical strokes (or enough to break up all tissue) with Teflon-tipped homogenizer. Filter each sample through a 100 mesh screen into a 50 ml tube. […] After all samples have been spun, vortex each briefly and let sit for 1 hour. Vortex each sample ~5 seconds, waiting ~10 seconds between each sample. Let sit 5 minutes, then pipet cell suspension into 5 ml (12×75 mm) tube being careful not to remove any sediment. Remove 50 ul cell suspension using micropipetter, carefully wipe pipet tip with kimwipe and pipet into 20 ml Isoton in Coulter counter vial, rinsing pipet several times in the Isoton. Add 6 drops of CyMet and swirl vial to mix. Use the following Coulter counter settings: Amplification-1, Threshold-10, and Aperture Current-1. Clean counter with Isoterge the morning of experiment and count background before standardizing with CH 0.60 Hematology Controls. After cell counts are obtained, dilute to 6×10^6 cells/ml with supplemented RPMI and aliquot into 3 tubes for the 3 assays.
1. Pipet 100 μl control media (supplemented RPMI) or appropriate dilution of mitogen (starting with lowest concentration) into microtiter plate using Titertek multi-channel pipetter. Place plates in 37° C. CO2 incubator with CO2 set at 0.5 after each plate has been pipetted. Pipet 100 μl responder cells into wells starting with most dilute mitogen concentration. Place plates in incubator as they are filled and after all plates are in incubator, let sit for 10-20 minutes. Wrap plates with plastic wrap, recover with top, replace in incubator, and reset CO2 to ~0.05. Save ~50 ml supplemented RPMI at 4° C. for thymidine dilution. After ~44 hours warm the RPMI to 37° C. in incubator. Dilute tritiated Thymidine 1:100 in warmed RPMI. Use Titertek to add 50 μl Thymidine to each well. Treat plates as above and incubate overnight (~18 hours).

[3] = tested on: lymphocytes from normal volunteers (active E-rosettes); experiment: enhancement of active E-rosettes, lymphocytes from normal volunteers in vitro; format: cell-based; conditions: for % E-rosettes (active): control 37
Method: The effects of NPT 16416 on stimulating formation of active rosettes when incubated with lymphocytes in vitro from normal volunteers is described in Table XII. It is important to note that 5×10^-8M concentration of NPT 16416 is capable of producing a 36.5% enhancement of Active E-Rosettes. The enhancement of Active E-Rosettes is biologically important because that fraction of lymphocytes (T-cells) which are the active rosettes are found to be deficient in tumor patients and virus infected individuals. Restoration of this deficiency should benefit the patient.

Influenza A/USSR 90 = experiment: inhibition of influenza virus replication (hemadsorption assay); format: cell-based; conditions: read-out: % inhibition of viral growth
Method: The ability of NPT 16416 to inhibit influenza virus replication was measured using the hemadsorption assay.

`Oc1ncnc2c1nc1n2CCS1` [NPT 16416, 3-hydroxy-7,8-dihydrothiazolo-[3,2e]-purine] was tested, and the “percent of theta positive cells” value ([1]; .005-.01 μg/ml) was 14%, the “percent of theta positive cells” value ([1]; .05-.1 μg/ml) was 18% and the “percent of theta positive cells” value ([1]; .5-1.0 μg/ml) was 17%. For the same molecule, the “production of theta positive (T) cells, in words” value ([1]; in vitro) was “able to cause the production of T-cells from a T-cell deficient population”, the “increase of theta positive cells over control values” ([1]; spleen cells from athymic mice, in vitro) was 125% and the activity at 0.01 µg/mL ([2]; T-cell, drug 10 ng/ml, Con A 1000 ng/ml, drug/control, read-out: Hi Mitogen D/C Con A) was 104%. For the same molecule, the activity at 0.1 µg/mL ([2]; T-cell, drug 100 ng/ml, Con A 1000 ng/ml, drug/control, read-out: Hi Mitogen D/C Con A) was 102%, the activity at 1 µg/mL ([2]; T-cell, drug 1,000 ng/ml, Con A 1000 ng/ml, drug/control, read-out: Hi Mitogen D/C Con A) was 103% and the activity at 2.5 µg/mL ([2]; T-cell, drug 2,500 ng/ml, Con A 1000 ng/ml, drug/control, read-out: Hi Mitogen D/C Con A) was 91%. It also gave an activity at 5 µg/mL ([2]; T-cell, drug 5,000 ng/ml, Con A 1000 ng/ml, drug/control, read-out: Hi Mitogen D/C Con A) of 101%, an activity at 25 µg/mL ([2]; T-cell, drug 25,000 ng/ml, Con A 1000 ng/ml, drug/control, read-out: Hi Mitogen D/C Con A) of 100% and an activity at 50 µg/mL ([2]; T-cell, drug 50,000 ng/ml, Con A 1000 ng/ml, drug/control, read-out: Hi Mitogen D/C Con A) of 99%. For the same molecule, the activity at 0.01 µg/mL ([2]; read-out: Lo Mitogen D/C Con A) was 85%, the activity at 0.1 µg/mL ([2]; drug 100 ng/ml, Con A 375 ng/ml, drug/control, read-out: Lo Mitogen D/C Con A) was 105% and the activity at 1 µg/mL ([2]; drug 1,000 ng/ml, Con A 375 ng/ml, drug/control, read-out: Lo Mitogen D/C Con A) was 93%. It also gave an activity at 1 µg/mL ([2]; drug 1,000 ng/ml, Con A .375 μg/ml, read-out: Con A D/C (maximum values)) of 118%, an activity at 2.5 µg/mL ([2]; drug 2,500 ng/ml, Con A 375 ng/ml, drug/control, read-out: Lo Mitogen D/C Con A) of 98% and an activity at 5 µg/mL ([2]; drug 5,000 ng/ml, Con A 375 ng/ml, drug/control, read-out: Lo Mitogen D/C Con A) of 110%. It also gave an activity at 25 µg/mL ([2]; drug 25,000 ng/ml, Con A 375 ng/ml, drug/control, read-out: Lo Mitogen D/C Con A) of 113%, an activity at 25 µg/mL ([2]; drug 25,000 ng/ml, Con A .375 μg/ml, read-out: Con A D/C (maximum values)) of 118% and an activity at 50 µg/mL ([2]; drug 50,000 ng/ml, Con A 375 ng/ml, drug/control, read-out: Lo Mitogen D/C Con A) of 103%. The “CPM Incorp. + Con A” value ([2]; drug 10 ng/ml, Con A 375 ng/ml) was 17.3 CPM × 10^3, the “CPM Incorp. + Con A” value ([2]; drug 10 ng/ml, Con A 1000 ng/ml) was 61.8 CPM × 10^3 and the “CPM Incorp. + Con A” value ([2]; drug 100 ng/ml, Con A 375 ng/ml) was 20.6 CPM × 10^3. For the same molecule, the “CPM Incorp. + Con A” value ([2]; drug 100 ng/ml, Con A 1000 ng/ml) was 60.8 CPM × 10^3, the “CPM Incorp. + Con A” value ([2]; drug 1,000 ng/ml, Con A 375 ng/ml) was 18.0 CPM × 10^3 and the “CPM Incorp. + Con A” value ([2]; drug 1,000 ng/ml, Con A 1000 ng/ml) was 60.8 CPM × 10^3. For the same molecule, the “CPM Incorp. + Con A” value ([2]; drug 2,500 ng/ml, Con A 375 ng/ml) was 19.1 CPM × 10^3, the “CPM Incorp. + Con A” value ([2]; drug 2,500 ng/ml, Con A 1000 ng/ml) was 54.0 CPM × 10^3 and the “CPM Incorp. + Con A” value ([2]; drug 5,000 ng/ml, Con A 375 ng/ml) was 21.5 CPM × 10^3. For the same molecule, the “CPM Incorp. + Con A” value ([2]; drug 5,000 ng/ml, Con A 1000 ng/ml) was 59.7 CPM × 10^3, the “CPM Incorp. + Con A” value ([2]; drug 25,000 ng/ml, Con A 375 ng/ml) was 22.1 CPM × 10^3 and the “CPM Incorp. + Con A” value ([2]; drug 25,000 ng/ml, Con A 1000 ng/ml) was 59.0 CPM × 10^3. For the same molecule, the “CPM Incorp. + Con A” value ([2]; drug 50,000 ng/ml, Con A 375 ng/ml) was 20.2 CPM × 10^3, the “CPM Incorp. + Con A” value ([2]; drug 50,000 ng/ml, Con A 1000 ng/ml) was 58.6 CPM × 10^3 and the “effect on Con A induced proliferation (T-cell response), in words” value ([2]; in vitro) was “little or no effect”. For the same molecule, the “% E-rosettes (active)” value ([3]; 5 × 10^-5 M) was 43%, the “% E-rosettes (active)” value ([3]; 5 × 10^-7 M) was 55.5% and the “% E-rosettes (active)” value ([3]; 5 × 10^-8 M) was 62.5%. For the same molecule, the “% E-rosettes (active)” value ([3]; 5 × 10^-9 M) was 58.5%, the “% E-rosettes (active)” value ([3]; 5 × 10^-10 M) was 42% and the activation at 50 µM ([3]; Homo sapiens, Lymphocyte, 5 × 10^-5 M, read-out: % increase of active E-rosettes) was 10%. It also gave an activation at 0.5 µM ([3]; Homo sapiens, Lymphocyte, 5 × 10^-7 M, read-out: % increase of active E-rosettes) of 23%, an activation at 0.05 µM ([3]; Homo sapiens, Lymphocyte, 5 × 10^-8 M, read-out: % increase of active E-rosettes) of 36.5% and an activation at 0.005 µM ([3]; Homo sapiens, Lymphocyte, 5 × 10^-9 M, read-out: % increase of active E-rosettes) of 34%. It also gave an activation at 0.0005 µM ([3]; Homo sapiens, Lymphocyte, 5 × 10^-10 M, read-out: % increase of active E-rosettes) of 7.6%, an inhibition at 0.1 µg/mL (Influenza A/USSR 90; 0.1 μg/ml) of 54% and an inhibition at 0.5 µg/mL (Influenza A/USSR 90; 0.5 μg/ml) of 59%. The inhibition at 75 µg/mL (Influenza A/USSR 90; 75 μg/ml) was 78% and the inhibition at 0.05 µg/mL (Influenza A/USSR 90; NPT 16416 0.05 μg/ml) was 48%.
